What was measured:
[1] = system: C. violaceum killing of C. elegans; test: C. elegans life span assay following C. violaceum infection; assay type: in vivo, Caenorhabditis elegans; conditions: C. violaceum cviI mutant
Method: Life Span Assays. C. elegans lifespan assays were completed with at least 100 wild type N2 worms for each condition. C. elegans eggs were harvested from a large population of gravid adults using a standard bleaching protocol (30 mL 5% bleach, 15 mL N KOH, 55 mL DH2O). Harvested eggs were placed on lawns of fresh E. coli OP50 and allowed to hatch and grow to the young adult (L4) stage before being moved onto lawns of C. violaceum. Worms were scored for survival each day and transferred to new C. violaceum lawns every two days until all worms had expired.
In the presence of the mutant strain, the median C. elegans lifespan is twelve days (FIG. 7A; DMSO control). Exogenous addition of the native autoinducer molecule, C6-HSL restored quorum sensing and complemented the cviI mutant's ability to kill C. elegans (median lifespan=4 days, FIG. 7A).

CviR [2] = molecular target: T1, CviR (Chromobacterium violaceum, UniProt D3W065); assay type: binding; design: made in house; host or cells: E. coli BL21(DE3) pLysS, plasmid pET23b; conditions: for DNA binding of ligand-loaded CviR to vioA promoter: CviR 100-500 nM
Method: (§1) CviR Overexpression and Purification. CviR was overexpressed in BL21(DE3) pLysS by growing an overnight culture in LB supplemented with 100 μg/mL ampicillin and 10 μg/mL chloramphenicol. The culture was diluted 1:50 into fresh LB supplemented with 100 μg/mL ampicillin and 10 μg/mL chloramphenicol and grown shaking at 37° C. to an OD600 of 0.4. Various AHL or antagonist molecules were added to at 50 μM and incubated an additional 30 minutes at 30° C., after which expression was induced by the addition of 100 μM IPTG (isopropyl-β-D-thiogalactopyranoside) for 4 hours at 30° C. Cells were harvested by centrifugation and lysed in 20 mM imidazole pH 8.0, 100 mM NaCl, 0.5 mM EDTA and 5% glycerol via a Micro-fluidizer processor (MicroFluidics). Protein was purified via ion-exchange using a Hitrap Heparin HP column (GE Healthcare). Protein was eluted with a 100 mM to 1 M NaCl gradient. Fractions containing CviR were pooled and diluted in lysis buffer devoid of NaCl, and then further purified by cation exchange chromatography using a Hitrap SP HP column (GE Healthcare). CviR was eluted with a 100 mM to 1 M NaCl gradient.
DNA probes for gel mobility shift analyses were generated by standard polymerase chain reaction using primers with a 5′ 6-FAM (fluorescein) tag (Integrated DNA Technologies). The target probe contained about 100 nucleotides of the vioA promoter. The control probe contained 300 bases of vioB intergenic DNA. 37 ng of each probe was incubated for 20 minutes at room temperature with the indicated amounts of CviR (0, 0.1, 0.2, 0.3, 0.4 and 0.5 μM) and 1 μg/μL poly-dIdC in 1× Gel shift buffer (40 mM Tris HCl pH 8.0, 100 mM KCL, 2 mM EDTA, 2 mM DTT, 10% glycerol, 200 μg/mL BSA). Gel mobility shifts were performed on 6% TGE-polyacrylamide gels and visualized using a Storm 860 Imaging System (Molecular Dynamics).
To further investigate the mechanism underlying antagonism of the CviR receptor, an examination was undertaken of whether the soluble CviR antagonist complexes were incapable of binding DNA, and thus unable to activate transcription. […] The CviR protein was also purified in complex with each of the synthetic antagonist molecules, 4606-4237, CTL, and CL. Performance of DNA gel mobility shift analyses enabled assessment of the binding of each of these purified, loaded protein complexes to the vioA promoter.
The reciprocal experiment tested whether C6-HSL could replace CL bound to CviR.

[3] = system: CviR-dependent violacein production; test: Violacein production in C. violaceum cviI mutant with exogenous C6-HSL; assay type: cell-based, Chromobacterium violaceum; conditions: 5 μM C6-HSL, 50 μM antagonist
Method: (§2) E. coli strains were grown overnight in LB medium with antibiotics at 37° C. and sub-cultured into fresh medium at a 1:100 dilution. Various AHL and antagonists were added at constant concentrations or titrated as stated. The gfp was measured on an Envision plate reader after 5 hours of growth at 37° C. C. violaceum strains were grown aerobically in 1 mL Nutrient Broth plus 1 mM tryptophan at 30° C. […] Cells were collected via centrifugation at 13000 rpm for 15 minutes. Pellets were resuspended in 1 mL of methanol and incubated at 42° C. for 1 hour. Samples were again collected via centrifugation at 13000 rpm for 5 minutes and analyzed for violacein by measuring optical density at 568 nm on a Beckman Coulter DU-800 spectrophotometer. For the dose-response analyses, all assays were performed in triplicate.
High-throughput chemical library screens had identified 15 molecules that inhibit AHL detection by the membrane-bound two-component AHL receptor LuxN (structures are provided in FIG. 8A). Experiments were undertaken to establish whether any of these LuxN antagonist molecules could also interfere with AHL binding to CviR. […] The native C6-HSL signal was added exogenously and held constant at 5 μM and violacein production was measured in the presence of 50 μM of each potential antagonist (FIG. 8B).

[4] = system: CviR-dependent violacein production; test: Violacein production in wild type C. violaceum, dose-response; assay type: cell-based; conditions: Chromobacterium violaceum, read-out: IC50 for inhibition of violacein production
Method: as §2
To determine if 4606-4237 inhibits violacein production specifically by interfering with CviR, 4606-4237 was tested for antagonism of CviR in the recombinant E. coli vioA-gfp assay. For these experiments, C6-HSL was held constant at 500 nM, while 4606-4237 was titrated from 1.3 nM to 100 μM (FIG. 3D). This concentration of native C6-HSL signal induces maximal gfp production in this heterologous assay system. Importantly, no C. violaceum components other than CviR are present in the recombinant E. coli assay strain. Thus, any inhibition occurring would be due to a specific interaction between the antagonist molecule 4606-4237 and CviR rather than an interaction of 4606-4237 with some unknown component required for violacein production in C. violaceum. […] Thus, 4606-4237 functions by disabling CviR-mediated activation of gene expression in both the C. violaceum in vivo violacein assay and the recombinant E. coli vioA-gfp assay.

bacterial growth = test: Bacterial growth in presence of antagonist; assay type: cell-based, Chromobacterium violaceum
CviR [5] = molecular target: T1, CviR; assay type: cell-based; design: made in house; host or cells: E. coli BL21(DE3) pLysS, plasmid pET23b; conditions: for EC50: E. coli expressing CviR, vioA-gfp reporter, read-out: EC50 for activation of vioA-gfp expression; for maximal level of vioA-gfp expression: compared with C6-HSL; for induction of vioA-gfp expression through CviR: even at 100 μM
Method: (§3) The vioA-gfp promoter fusion was constructed by amplifying the vioA promoter and cloning this region upstream of gfp in pEVS141 at the SphI and SalI sites. Cells containing the vioA-gfp construct were electroporated with the pET23 carrying cviR and selected on LB medium supplemented with 75 μg/mL ampicillin and 50 μg/mL kanamycin. The E. coli strain containing cviR and the vio:gfp reporter is named ELS1257.
as §2
To examine the specificity and sensitivity of CviR, an E. coli strain was engineered that expresses CviR and contains a plasmid harboring the vioA promoter fused to green fluorescent protein (gfp). Thus, the ability of CviR to activate transcription can be assessed by measuring gfp expression in the presence of various molecules.

CviR [6] = molecular target: T1, CviR; conditions: CviR expressed in E. coli, whole cell vs soluble extract, ligand 50 μM
Method: as §1
The solubility characteristics of CviR were analyzed in the presence of the various molecules under study. […] As controls, the protein was also expressed in the absence of any AHL or antagonist. In each case, whole cell and soluble fractions of cell lysates were analyzed by SDS-PAGE to assess whether the CviR protein in question had been stabilized.

CviR [7] = molecular target: T1, CviR; test: cell-based; assay type: cell-based; design: made in house; host or cells: E. coli BL21(DE3) pLysS, plasmid pET23b; conditions: constant 500 nM C6-HSL; read-out: IC50 for inhibition of vioA-gfp expression
Method: as §3, §2
However, binding of the longer acyl-tail length AHL molecules disrupts the transcriptional activation ability of CviR.
To determine if 4606-4237 inhibits violacein production specifically by interfering with CviR, 4606-4237 was tested for antagonism of CviR in the recombinant E. coli vioA-gfp assay. For these experiments, C6-HSL was held constant at 500 nM, while 4606-4237 was titrated from 1.3 nM to 100 μM (FIG. 3D). […] Importantly, no C. violaceum components other than CviR are present in the recombinant E. coli assay strain. Thus, any inhibition occurring would be due to a specific interaction between the antagonist molecule 4606-4237 and CviR rather than an interaction of 4606-4237 with some unknown component required for violacein production in C. violaceum.

T1 sequence (D3W065 1-265): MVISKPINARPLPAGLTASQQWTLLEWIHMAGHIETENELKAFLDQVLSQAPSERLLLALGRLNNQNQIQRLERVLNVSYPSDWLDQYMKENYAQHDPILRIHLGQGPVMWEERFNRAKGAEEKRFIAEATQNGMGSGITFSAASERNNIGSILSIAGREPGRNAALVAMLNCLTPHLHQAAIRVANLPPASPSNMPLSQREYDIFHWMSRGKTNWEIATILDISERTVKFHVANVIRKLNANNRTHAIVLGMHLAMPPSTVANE

SMILES | DNA binding of ligand-loaded CviR to vioA promoter (CviR [2]) | EC50 (CviR [5]) | IC50 (CviR [7]) | induction of vioA-gfp expression through CviR (CviR [5]) | other results
Cc1cc(Cl)ccc1OCCCC(=O)NC1CCSC1=O (centres unmarked) [4606-4237, 4-(4-chloro-2-methylphenoxy)-N-(2-oxotetrahydrothiophen-3-yl)butanamide] | no ability to bind DNA |  |  |  | C. elegans median survival ([1]; C6-HSL 5 μM and 4606-4237 50 μM added simultaneously): twelve; effect on C. elegans ([1]; no C6-HSL, 4606-4237 50 μM): had little affect on C. elegans; violacein production [3]: completely abolished violacein production; IC50 [4]: 1200 nM; inhibition of bacterial growth (bacterial growth): does not inhibit bacterial growth
CCCC(=O)N[C@H]1CCOC1=O [C4-HSL] |  | 12000 nM |  |  | maximal level of vioA-gfp expression (CviR [5]): can induce maximal vioA-gfp expression
CCCCCC(=O)N[C@H]1CCOC1=O [C6-HSL, C6-homoserine lactone] | binds DNA with high affinity | 75 nM |  |  | median C. elegans lifespan ([1]; C6-HSL 5 μM added): 4 days; CviR folding and solubility in presence of ligand (CviR [6]): soluble; ligand exchange on loaded CviR, effect on DNA binding (CviR [2]; 500 nM loaded CviR, competing ligand 0-10 μM): not likewise capable of replacing CL to generate fully competent DNA bound complex
CCCCCCCC(=O)N[C@H]1CCOC1=O [C8-HSL] | bound DNA with similar affinity to the C6-HSL loaded CviR complex | 30 nM |  |  | maximal level of vioA-gfp expression (CviR [5]): half of the maximal vioA-gfp expression induced by C6-HSL
CCCCCCCCCC(=O)N[C@H]1CCOC1=O [C10-HSL, reference compound] | does not abolish DNA binding |  | 208 nM | do not induce vioA-gfp expression | CviR folding and solubility in presence of ligand (CviR [6]): soluble
CCCCCCCCCCCC(=O)N[C@H]1CCOC1=O [C12-HSL] | no ability to bind DNA |  | 494 nM | do not induce vioA-gfp expression | 
CCCCCCCCCCCCCC(=O)N[C@H]1CCOC1=O [C14-HSL] | no ability to bind DNA |  | 268 nM | do not induce vioA-gfp expression | 
